Results on one substance are retold here after patent US20250236838A1, “E. COLI NISSLE STRAIN WITH IMPROVED TRANSFORMATION EFFICIENCY” (priority 2024, published 2025).

“And” between values parts separate entries of the source, which are not always exact repeats. Identical values can stand only once.

This series can be described thus: Hydrophobicity, dodecane partitioning assay. The series is classed as physicochemical, E. coli Nissle. On the procedure:
Hydrophobicity was measured using a standard partitioning assay. Fresh cultures of both strains were grown till log phase (OD600=0.7). The OD was found using Thermo Fischer's NanoDrop^C. The OD546 of the cell (OD1) was adjusted to 0.3 using 10 mM CaCO3 solution. 4 ml of the cell suspension was transferred to individual test tubes having 1 ml of dodecane and vortexed at 2500 rpm for 10 minutes to homogenize the phases. The phases were allowed to separate for 15 minutes. The OD546 of the aqueous phase (OD2) was measured.
The mean percentage of partitioning was calculated using triplicate samples. Partitioning of the bacteria suspension is calculated using Equation (3).

Consider E. coli Nissle 1917 [Wild Type], for which, under “OD546 of the aqueous phase after dodecane partitioning”, the OD2 was 0.14 and 0.17. Further, the OD1 (OD546 of the cell suspension before partitioning) is 0.29 and 0.27. Besides, under “conclusion from phase partitioning”, the membrane hydrophobicity result is on record as “hydrophilic”. For the same substance, the “Average Partitioning” value (mean of triplicate samples) is 45.636%. In addition, the “Percentage of Partitioning” value (single samples of triplicate) was 51.724% and 37.037% and 48.148%.
